We go through two molecules from ChEMBL document CHEMBL1909046, “DrugMatrix in vitro pharmacology data”.

The IC50 is the concentration at which inhibition is half-maximal. In general, Ki refers to a dissociation constant, usually derived from enzyme kinetics or from competition with a known ligand.

Melanocortin receptor 4, sequence (P32245 whole entry): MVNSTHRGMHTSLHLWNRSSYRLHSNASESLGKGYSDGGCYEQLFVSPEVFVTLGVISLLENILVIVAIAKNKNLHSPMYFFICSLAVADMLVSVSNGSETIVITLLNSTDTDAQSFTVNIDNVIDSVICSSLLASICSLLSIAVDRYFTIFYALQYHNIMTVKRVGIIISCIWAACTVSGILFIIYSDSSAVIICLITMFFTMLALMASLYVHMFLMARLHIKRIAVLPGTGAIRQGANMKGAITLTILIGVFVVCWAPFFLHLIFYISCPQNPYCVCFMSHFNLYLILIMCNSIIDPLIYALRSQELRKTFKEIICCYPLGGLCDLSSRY
Mu-type opioid receptor, sequence (P35372 whole entry): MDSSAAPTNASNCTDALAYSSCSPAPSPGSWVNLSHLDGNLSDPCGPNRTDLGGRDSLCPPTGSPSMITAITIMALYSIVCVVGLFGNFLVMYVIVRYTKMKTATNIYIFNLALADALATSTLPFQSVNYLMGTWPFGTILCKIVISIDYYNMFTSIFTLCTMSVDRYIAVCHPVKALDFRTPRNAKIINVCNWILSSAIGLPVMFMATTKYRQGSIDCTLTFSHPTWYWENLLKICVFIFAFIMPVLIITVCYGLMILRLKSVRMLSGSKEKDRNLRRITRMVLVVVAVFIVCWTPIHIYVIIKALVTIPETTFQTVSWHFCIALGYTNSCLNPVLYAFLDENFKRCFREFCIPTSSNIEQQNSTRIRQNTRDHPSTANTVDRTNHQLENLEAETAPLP
Kappa-type opioid receptor, sequence (P41145 whole entry): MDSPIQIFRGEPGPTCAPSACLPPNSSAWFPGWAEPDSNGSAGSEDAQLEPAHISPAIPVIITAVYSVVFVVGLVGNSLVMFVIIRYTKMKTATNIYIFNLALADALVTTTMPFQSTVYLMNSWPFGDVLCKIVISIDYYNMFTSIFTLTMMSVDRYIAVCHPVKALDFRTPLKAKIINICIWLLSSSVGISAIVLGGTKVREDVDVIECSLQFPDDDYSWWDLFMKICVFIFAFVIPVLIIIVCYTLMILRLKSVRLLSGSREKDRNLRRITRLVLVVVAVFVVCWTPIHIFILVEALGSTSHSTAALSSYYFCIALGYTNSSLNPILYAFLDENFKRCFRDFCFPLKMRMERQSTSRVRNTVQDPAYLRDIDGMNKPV
5-hydroxytryptamine receptor 6, sequence (P50406 whole entry): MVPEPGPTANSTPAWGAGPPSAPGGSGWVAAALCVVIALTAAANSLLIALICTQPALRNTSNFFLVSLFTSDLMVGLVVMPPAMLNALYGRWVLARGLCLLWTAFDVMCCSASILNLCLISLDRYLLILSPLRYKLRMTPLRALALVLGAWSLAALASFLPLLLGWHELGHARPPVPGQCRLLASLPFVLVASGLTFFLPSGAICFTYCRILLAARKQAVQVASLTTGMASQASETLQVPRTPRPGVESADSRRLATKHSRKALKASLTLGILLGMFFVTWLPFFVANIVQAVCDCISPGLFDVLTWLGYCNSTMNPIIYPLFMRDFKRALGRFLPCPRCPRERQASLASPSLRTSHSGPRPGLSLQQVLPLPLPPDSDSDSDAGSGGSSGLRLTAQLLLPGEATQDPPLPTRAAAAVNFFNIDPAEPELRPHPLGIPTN

Test system in the first experiment: not listed separately
Nature of the experiment: DRUGMATRIX: Calcium Channel Type L, Phenylalkylamine radioligand binding (ligand: [3H] (-)-Desmethoxyverapamil (D-888)). It is filed as cell membranes, Rattus norvegicus, Wistar, Brain, Membrane. The note with it: Not Active = under 50% inhibition at 10 µM.
Turning to `COC(=O)[C@@H]1[C@H]2C[C@H]3c4[nH]c5ccccc5c4CCN3C[C@@H]2CC[C@@H]1O` [YOHIMBINE], the IC50 result is “Not Active” and the Ki result is reported as “Not Active”.

Another experiment deals with T1, Endothelin-1 receptor (Homo sapiens, UniProt P25101).
T1 sequence (P25101 whole entry): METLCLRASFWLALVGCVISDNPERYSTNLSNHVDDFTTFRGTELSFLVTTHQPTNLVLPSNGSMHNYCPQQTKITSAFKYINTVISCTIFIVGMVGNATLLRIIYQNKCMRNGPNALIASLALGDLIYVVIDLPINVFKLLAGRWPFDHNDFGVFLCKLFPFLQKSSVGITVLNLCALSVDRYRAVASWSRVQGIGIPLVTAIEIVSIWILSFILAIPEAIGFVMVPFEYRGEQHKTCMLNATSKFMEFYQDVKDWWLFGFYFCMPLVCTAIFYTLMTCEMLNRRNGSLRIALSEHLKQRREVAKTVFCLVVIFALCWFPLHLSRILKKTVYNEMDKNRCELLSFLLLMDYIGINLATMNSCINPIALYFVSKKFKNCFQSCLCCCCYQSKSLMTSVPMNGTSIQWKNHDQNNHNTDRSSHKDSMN
It is filed as cell membranes, Membrane. The note with it: cho-k1.
With `COC(=O)[C@@H]1[C@H]2C[C@H]3c4[nH]c5ccccc5c4CCN3C[C@@H]2CC[C@@H]1O` [YOHIMBINE], the IC50 entry is “Not Active”.
On the same count and under the same terms, the result for `CN(C)CCCN1c2ccccc2CCc2ccc(Cl)cc21` [CLOMIPRAMINE] reads “Not Active”.

Another experiment addresses 5-hydroxytryptamine receptor 6 (Homo sapiens, UniProt P50406). Format: cell membranes, HeLa, Membrane. The note with it: read-out: IC50.
On to `CN(C)CCCN1c2ccccc2CCc2ccc(Cl)cc21` [CLOMIPRAMINE], for which the IC50 came to 245 nM.

The same experiment, now with this note: read-out: Ki.
As for `CN(C)CCCN1c2ccccc2CCc2ccc(Cl)cc21` [CLOMIPRAMINE], the Ki is 114 nM.

Test system in another experiment: not listed separately
Nature of the experiment: DRUGMATRIX: Nicotinic Acetylcholine radioligand binding (ligand: [125I] Epibatidine). Format: cell membranes, Membrane. The note with it: imr-32; Not Active = under 50% inhibition at 10 µM.
As to `COC(=O)[C@@H]1[C@H]2C[C@H]3c4[nH]c5ccccc5c4CCN3C[C@@H]2CC[C@@H]1O` [YOHIMBINE], the IC50 entry was “Not Active” and the Ki entry was “Not Active”.

Test system in a further experiment: not listed separately
Nature of the experiment: DRUGMATRIX: ATPase, Na+/K+ enzyme inhibition (substrate: ATP). Format: tissue-based, Sus scrofa, Heart. The note with it: Not Active = under 50% inhibition at 10 µM.
Turning to `COC(=O)[C@@H]1[C@H]2C[C@H]3c4[nH]c5ccccc5c4CCN3C[C@@H]2CC[C@@H]1O` [YOHIMBINE], the IC50 result is listed as “Not Active” and the Ki entry is on record as “Not Active”.

A further experiment addresses T2, 5-hydroxytryptamine receptor 2C (Homo sapiens, UniProt P28335).
T2 sequence (P28335 whole entry): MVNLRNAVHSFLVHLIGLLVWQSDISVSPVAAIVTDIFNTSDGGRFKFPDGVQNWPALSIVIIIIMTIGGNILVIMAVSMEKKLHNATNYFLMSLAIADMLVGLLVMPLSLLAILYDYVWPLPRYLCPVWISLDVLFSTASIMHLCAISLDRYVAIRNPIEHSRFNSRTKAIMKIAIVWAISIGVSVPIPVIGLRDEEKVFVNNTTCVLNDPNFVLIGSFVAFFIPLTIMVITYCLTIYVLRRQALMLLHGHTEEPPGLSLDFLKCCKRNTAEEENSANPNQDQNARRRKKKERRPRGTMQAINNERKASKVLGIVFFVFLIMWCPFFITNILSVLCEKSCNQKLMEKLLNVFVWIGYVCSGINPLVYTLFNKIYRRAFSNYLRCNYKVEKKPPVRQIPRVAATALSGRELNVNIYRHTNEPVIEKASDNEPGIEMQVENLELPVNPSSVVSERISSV
Nature of the experiment: DRUGMATRIX: Serotonin (5-Hydroxytryptamine) 5-HT2C radioligand binding (ligand: [3H] Mesulergine). Format: cell membranes, CHO-K1, Membrane. The note with it: Not Active = under 50% inhibition at 10 µM; read-out: IC50.
Turning to `CN(C)CCCN1c2ccccc2CCc2ccc(Cl)cc21` [CLOMIPRAMINE], the IC50 turned out to be 34 nM.

Staying with this experiment, now noted: Not Active = under 50% inhibition at 10 µM; read-out: Ki.
Regarding `CN(C)CCCN1c2ccccc2CCc2ccc(Cl)cc21` [CLOMIPRAMINE], the Ki was 18 nM.

Staying with this experiment, now noted: cho-k1; Not Active = under 50% inhibition at 10 µM.
`COC(=O)[C@@H]1[C@H]2C[C@H]3c4[nH]c5ccccc5c4CCN3C[C@@H]2CC[C@@H]1O` [YOHIMBINE]: the IC50 entry is “Not Active”.

A further experiment deals with Sigma non-opioid intracellular receptor 1 (Homo sapiens, UniProt Q99720). Nature of the experiment: DRUGMATRIX: Sigma1 radioligand binding (ligand: [3H] Haloperidol). Format: cell membranes, Jurkat, Membrane. Conditions: Not Active = under 50% inhibition at 10 µM; read-out: IC50.
Sigma non-opioid intracellular receptor 1, sequence (Q99720 whole entry): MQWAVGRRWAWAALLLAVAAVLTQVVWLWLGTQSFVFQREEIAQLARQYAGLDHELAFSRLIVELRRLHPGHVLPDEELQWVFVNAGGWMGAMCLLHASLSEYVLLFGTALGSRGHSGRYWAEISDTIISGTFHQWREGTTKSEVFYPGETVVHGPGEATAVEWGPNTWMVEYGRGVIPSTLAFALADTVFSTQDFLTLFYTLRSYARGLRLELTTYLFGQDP
In the case of `CN(C)CCCN1c2ccccc2CCc2ccc(Cl)cc21` [CLOMIPRAMINE], the IC50 is 1360 nM.

The experiment is the same for the next values; noted with them: Not Active = under 50% inhibition at 10 µM; read-out: Ki.
Take `CN(C)CCCN1c2ccccc2CCc2ccc(Cl)cc21` [CLOMIPRAMINE]: the Ki is 572 nM.

Staying with this experiment, now noted: jurkat; Not Active = under 50% inhibition at 10 µM.
Turning to `COC(=O)[C@@H]1[C@H]2C[C@H]3c4[nH]c5ccccc5c4CCN3C[C@@H]2CC[C@@H]1O` [YOHIMBINE], the IC50 entry is on record as “Not Active”.

Test system in the next experiment: not listed separately
Nature of the experiment: DRUGMATRIX: Glutamate, Kainate radioligand binding (ligand: [3H] Kainic acid). Format: cell membranes, Rattus norvegicus, Wistar, Brain, Membrane. Conditions: Not Active = under 50% inhibition at 10 µM.
For `COC(=O)[C@@H]1[C@H]2C[C@H]3c4[nH]c5ccccc5c4CCN3C[C@@H]2CC[C@@H]1O` [YOHIMBINE], the IC50 result is “Not Active” and the Ki result is on record as “Not Active”.

Test system in another experiment: not listed separately
Nature of the experiment: DRUGMATRIX: Calcium Channel Type L, Benzothiazepine radioligand binding (ligand: [3H] Diltiazem). Conditions: Not Active = under 50% inhibition at 10 µM. Format: cell membranes, Rattus norvegicus, Wistar, Brain, Membrane.
Regarding `COC(=O)[C@@H]1[C@H]2C[C@H]3c4[nH]c5ccccc5c4CCN3C[C@@H]2CC[C@@H]1O` [YOHIMBINE], the IC50 entry is listed as “Not Active” and the Ki result is listed as “Not Active”.

A further experiment addresses Mu-type opioid receptor (Homo sapiens, UniProt P35372). Nature of the experiment: DRUGMATRIX: Opiate mu (OP3, MOP) radioligand binding (ligand: [3H] Diprenorphine). It is filed as cell membranes, CHO-K1, Membrane. Conditions: cho-k1; Not Active = under 50% inhibition at 10 µM.
With `COC(=O)[C@@H]1[C@H]2C[C@H]3c4[nH]c5ccccc5c4CCN3C[C@@H]2CC[C@@H]1O` [YOHIMBINE], the IC50 result is reported as “Not Active”.
Same read-out and setting: with `CN(C)CCCN1c2ccccc2CCc2ccc(Cl)cc21` [CLOMIPRAMINE] the entry was “Not Active”.

Test system in another experiment: not listed separately
Nature of the experiment: DRUGMATRIX: Serotonin (5-Hydroxytryptamine) 5-HT3 radioligand binding (ligand: [3H] GR-65630). Format: cell membranes, Membrane. Conditions: hek293; Not Active = under 50% inhibition at 10 µM.
Consider `COC(=O)[C@@H]1[C@H]2C[C@H]3c4[nH]c5ccccc5c4CCN3C[C@@H]2CC[C@@H]1O` [YOHIMBINE], for which the IC50 result is “Not Active” and the Ki entry is “Not Active”.

The next experiment has as its target Melanocortin receptor 4 (Homo sapiens, UniProt P32245). It is filed as cell membranes, Membrane. The note with it: hek293. Further: in other assays of this panel Not Active means under 50% inhibition at 10 µM.
In the case of `COC(=O)[C@@H]1[C@H]2C[C@H]3c4[nH]c5ccccc5c4CCN3C[C@@H]2CC[C@@H]1O` [YOHIMBINE], the IC50 result is “Not Active”.
Take `CN(C)CCCN1c2ccccc2CCc2ccc(Cl)cc21` [CLOMIPRAMINE]: the IC50 entry is listed as “Not Active”.

Test system in another experiment: not listed separately
Nature of the experiment: DRUGMATRIX: GABAA, Muscimol, Central radioligand binding (ligand: [3H] Muscimol). Format: cell membranes, Rattus norvegicus, Wistar, Brain, Membrane. Conditions: Not Active = under 50% inhibition at 10 µM.
With `COC(=O)[C@@H]1[C@H]2C[C@H]3c4[nH]c5ccccc5c4CCN3C[C@@H]2CC[C@@H]1O` [YOHIMBINE], the IC50 entry is “Not Active” and the Ki result was “Not Active”.

In a further experiment the target is T3, Alpha-1B adrenergic receptor (Rattus norvegicus, UniProt P15823).
T3 sequence (P15823 whole entry): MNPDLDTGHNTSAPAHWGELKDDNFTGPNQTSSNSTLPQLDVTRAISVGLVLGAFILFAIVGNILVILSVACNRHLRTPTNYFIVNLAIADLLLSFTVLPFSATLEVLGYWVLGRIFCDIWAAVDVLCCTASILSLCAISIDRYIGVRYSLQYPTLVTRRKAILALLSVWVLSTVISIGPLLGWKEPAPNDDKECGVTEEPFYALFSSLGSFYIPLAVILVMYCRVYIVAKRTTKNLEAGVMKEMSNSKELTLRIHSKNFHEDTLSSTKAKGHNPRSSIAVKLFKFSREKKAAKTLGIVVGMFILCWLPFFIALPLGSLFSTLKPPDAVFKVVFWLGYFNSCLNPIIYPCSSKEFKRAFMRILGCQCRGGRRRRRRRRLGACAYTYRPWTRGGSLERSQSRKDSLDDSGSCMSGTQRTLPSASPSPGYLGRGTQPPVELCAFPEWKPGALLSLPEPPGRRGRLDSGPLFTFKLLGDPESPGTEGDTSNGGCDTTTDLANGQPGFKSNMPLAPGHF
Nature of the experiment: DRUGMATRIX: Alpha-1B adrenergic receptor radioligand binding (ligand: prazosin). It is filed as cell membranes, Wistar, Liver, Membrane. Conditions: Not Active = under 50% inhibition at 10 µM; read-out: IC50.
`COC(=O)[C@@H]1[C@H]2C[C@H]3c4[nH]c5ccccc5c4CCN3C[C@@H]2CC[C@@H]1O` [YOHIMBINE]: the half-inhibitory concentration (IC50) came out at 1190 nM.

Still in this experiment, the particulars now being: Not Active = under 50% inhibition at 10 µM; read-out: Ki.
Take `COC(=O)[C@@H]1[C@H]2C[C@H]3c4[nH]c5ccccc5c4CCN3C[C@@H]2CC[C@@H]1O` [YOHIMBINE]: the Ki came to 658 nM.

A further experiment concerns the target Kappa-type opioid receptor (Homo sapiens, UniProt P41145). Nature of the experiment: DRUGMATRIX: Opiate kappa (OP2, KOP) radioligand binding (ligand: [3H] Diprenorphine). Format: cell membranes, HEK293, Membrane. The note with it: hek293; Not Active = under 50% inhibition at 10 µM.
With `COC(=O)[C@@H]1[C@H]2C[C@H]3c4[nH]c5ccccc5c4CCN3C[C@@H]2CC[C@@H]1O` [YOHIMBINE], the IC50 result was “Not Active”.
Regarding `CN(C)CCCN1c2ccccc2CCc2ccc(Cl)cc21` [CLOMIPRAMINE], the IC50 result was “Not Active”.

The target of the next experiment is Beta-1 adrenergic receptor (Homo sapiens, UniProt P08588). Nature of the experiment: DRUGMATRIX: Adrenergic beta1 radioligand binding (ligand: [125I] Cyanopindolol). The note with it: cho-k1; Not Active = under 50% inhibition at 10 µM. Format: cell membranes, CHO-K1, Membrane.
Beta-1 adrenergic receptor, sequence (P08588 whole entry): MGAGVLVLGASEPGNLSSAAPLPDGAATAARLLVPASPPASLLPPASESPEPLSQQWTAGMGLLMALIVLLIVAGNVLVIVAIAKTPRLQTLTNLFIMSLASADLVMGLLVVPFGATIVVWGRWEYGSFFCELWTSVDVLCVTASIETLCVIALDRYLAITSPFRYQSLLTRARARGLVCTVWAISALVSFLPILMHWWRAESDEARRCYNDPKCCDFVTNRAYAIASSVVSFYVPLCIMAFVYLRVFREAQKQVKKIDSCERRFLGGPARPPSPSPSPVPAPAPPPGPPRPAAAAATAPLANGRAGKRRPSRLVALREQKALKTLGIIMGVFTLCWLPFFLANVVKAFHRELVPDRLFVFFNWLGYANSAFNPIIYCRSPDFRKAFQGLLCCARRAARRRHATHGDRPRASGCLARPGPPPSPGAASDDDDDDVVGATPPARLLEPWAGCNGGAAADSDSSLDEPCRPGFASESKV
For the molecule `COC(=O)[C@@H]1[C@H]2C[C@H]3c4[nH]c5ccccc5c4CCN3C[C@@H]2CC[C@@H]1O` [YOHIMBINE], the IC50 entry is reported as “Not Active”.
On the same count and under the same terms, with `CN(C)CCCN1c2ccccc2CCc2ccc(Cl)cc21` [CLOMIPRAMINE] the entry was “Not Active”.

Another experiment addresses T4, Neuropeptide Y receptor type 2 (Homo sapiens, UniProt P49146).
T4 sequence (P49146 whole entry): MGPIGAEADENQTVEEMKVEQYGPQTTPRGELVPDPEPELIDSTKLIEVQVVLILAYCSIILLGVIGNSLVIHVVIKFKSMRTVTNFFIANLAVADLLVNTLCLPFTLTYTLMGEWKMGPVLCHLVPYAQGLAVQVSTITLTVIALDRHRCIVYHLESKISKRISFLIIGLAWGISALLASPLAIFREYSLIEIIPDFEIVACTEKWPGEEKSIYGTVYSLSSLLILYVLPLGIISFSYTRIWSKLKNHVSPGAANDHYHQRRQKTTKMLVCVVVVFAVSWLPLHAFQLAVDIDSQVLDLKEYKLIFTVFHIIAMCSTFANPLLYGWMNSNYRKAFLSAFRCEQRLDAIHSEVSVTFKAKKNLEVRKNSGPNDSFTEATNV
It is filed as cell membranes, Membrane. The note with it: kan-ts.
As to `COC(=O)[C@@H]1[C@H]2C[C@H]3c4[nH]c5ccccc5c4CCN3C[C@@H]2CC[C@@H]1O` [YOHIMBINE], the IC50 entry is listed as “Not Active”.
Take `CN(C)CCCN1c2ccccc2CCc2ccc(Cl)cc21` [CLOMIPRAMINE]: the IC50 result is “Not Active”.
